39 compounds from patent publication US11198673B2, “Therapeutic compounds and compositions” (eXIthera Pharmaceuticals, Inc., priority 2014, dated 2021) can be followed below.

Structures are written as SMILES. Counter-ions that a name gives are not always drawn. Where only a bound is given, the exact number is not on record here.

Broadly, the IC50 is the concentration needed to halve the response being measured.

System in one series: not listed separately
The experiment in a line: β-Lactam stability in rat plasma. Format: in vitro ADME. The settings on record: normal rat plasma, room temperature; read-out: Rat Plasma Stability (T1/2; min). How it is done: Normal rat plasma, stored at −80° C.
• 1. Place 6 μL of each compound into 0.5 mL microcentrifuge tubes or 96-well U-bottom, polypropylene microtiter plate • 2. Place 40 μL of acetonitrile (AcN) into 0.5 mL microcentrifuge tubes labeled 1-9 • 3. Add 114 μL of plasma to each compound • 4. Sample 10 μL of compound/plasma into AcN at 2, 10, 20, 30, 60, 90, 120, 240, and 480 min of incubation at room temperature • 5. Mix each time point after adding sample and place on ice. • 6. Centrifuge time points (12,000 rpm, 3 min), remove 15 μL of the supernatant and mix with 15 μL 0.1% TFA in a V-bottom microtiter plate. • 7. Place microtiter plate in autosampler of HPLC and analyze on Restek Pinnacle C18 column (2.1×100 mm). • 8. Generate extracted ion chromatogram for parent compound and parent compound+18 (H2O). Integrate extracted ion chromatograms (EIC) and plot % total peak area for parent and adduct versus time. Fit to a model of single phase exponential decay [Y=A0*exp(−k*x)+C]. T½ is equal to ln(2)/k.
Consider `CCCCCCOC(=O)Nc1cc(C[C@H]2C(=O)N(C(=O)NC(c3ccccc3)c3ccccc3)[C@@H]2C(=O)O)ccn1` [Example 56], for which the half-life was greater than 1.67 h.
In the case of `CCCCCCOC(=O)Nc1cc(C[C@H]2C(=O)N(C(=O)NC(c3ccccc3)c3ccccc3)[C@@H]2C(=O)OCC)ccn1` [Example 57], the half-life was less than 1.67 h.
As to `CCOC(=O)[C@@H]1[C@@H](Cc2ccc(Cl)nc2)C(=O)N1C(=O)N[C@H](C)c1ccc2c(c1)OC(F)(F)O2` [Example 97], the half-life is less than 1.67 h.
Same read-out and setting: for `C[C@@H](NC(=O)N1C(=O)[C@H](Cc2cncs2)[C@H]1C(=O)O)c1ccc2c(c1)OC(F)(F)O2` [Example 102] the value was greater than 1.67 h; for `CCOC(=O)[C@@H]1[C@@H](Cc2ccnc(NC(=O)OC(C)OC(=O)C(C)C)c2)C(=O)N1C(=O)N[C@H](C)C1CCCCC1` (stereo partly drawn) [Example 150], less than 1.67 h; for `CCOC(=O)[C@@H]1[C@@H](Cc2ccnc(N)c2)C(=O)N1C(=O)N(C)[C@H](C)C1CCCCC1` [Example 151], less than 1.67 h.

The target in another series is T1, human Factor XIa (Homo sapiens, UniProt P03951).
T1 construct: Enzyme: Factor XIa; 0.25 μM in 50% glycerol (20 μg/mL)
T1 sequence (P03951 388-625 limits assumed): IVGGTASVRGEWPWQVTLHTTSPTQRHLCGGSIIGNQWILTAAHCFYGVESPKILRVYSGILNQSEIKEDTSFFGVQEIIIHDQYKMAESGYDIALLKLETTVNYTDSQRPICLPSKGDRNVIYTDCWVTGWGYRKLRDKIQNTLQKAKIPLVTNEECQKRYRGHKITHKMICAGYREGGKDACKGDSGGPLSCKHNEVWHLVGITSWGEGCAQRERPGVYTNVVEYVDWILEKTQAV
T1 sequence (P03951 19-387 partner limits assumed): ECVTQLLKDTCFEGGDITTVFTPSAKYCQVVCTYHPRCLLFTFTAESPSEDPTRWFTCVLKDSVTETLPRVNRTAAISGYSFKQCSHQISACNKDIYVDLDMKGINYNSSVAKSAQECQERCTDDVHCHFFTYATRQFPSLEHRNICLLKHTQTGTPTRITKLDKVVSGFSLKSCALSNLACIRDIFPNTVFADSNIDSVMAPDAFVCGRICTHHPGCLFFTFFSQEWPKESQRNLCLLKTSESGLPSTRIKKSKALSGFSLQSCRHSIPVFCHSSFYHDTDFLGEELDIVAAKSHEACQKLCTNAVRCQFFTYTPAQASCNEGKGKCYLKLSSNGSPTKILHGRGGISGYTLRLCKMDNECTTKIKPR
The experiment in a line: Factor XIa enzyme inhibition assay (IC50, purified enzyme). It is filed as biochemical. As to conditions: purified enzyme 0.25 nM, substrate 50 μM; read-out: Potency hFXIa IC50. How it is done: • Assay buffer: 20 mM Hepes, pH 7.4; 150 mM NaCl; 0.02% Tween 20 • Compounds: 10 mM stocks in DMSO • Substrate: 20 mM Glp-Pro-Arg-AMC, 25 mg/2.3 mL H2O (store at +4° C.) [Factor XIa, thrombin, and trypsin] • 20 mM Pro-Phe-Arg-AMC (Bachem I-1295), 25 mg/2.2 mL H2O (store at +4° C.) [Factor Xa] • Enzyme: Factor XIa; 0.25 μM in 50% glycerol (20 μg/mL) • Trypsin; 0.2 μM in 50% glycerol (4.8 μg/mL) • Thrombin; 0.2 μM in 50% glycerol (7.34 μg/mL) • Factor Xa; 0.2 μM in 50% glycerol (9.2 μg/mL) • These stocks are aliquoted ([…]) and stored at −20° C. Methods: • 1. Dilute the substrate to 100 μM in assay buffer (30 μL/6 mL). The enzyme is diluted to 0.5 nM just prior to use (12 μL/6 mL for Factor XIa; 15 μL/6 mL for all of the rest.) • 2. Pipette 50 μL of substrate into each well of the 96 well (12×8) microtiter plate. (Column 1 is used as the 100% activity control and receives no compound, and Column 12 is the blank and receives no enzyme.) Add an additional 46 μL to column 2. • 3. Pipette 4 μL of each compound into the appropriate well in column 2 of the plate (unknowns assayed in triplicate, standard assayed in duplicate). The final compound concentration will be 1/50th of the stock. • 4. Serially two-fold dilute the compound by mixing the sample in column 2, removing 50 μL to the next well (column 3), mix and remove to column 4, etc. until column 11. After mixing column 11, remove 50 μL and discard. • 5. Pipette 50 μL of buffer into column 12. Initiate the reaction by adding 50 μL of enzyme solution to each well of columns 1-11 as rapidly as possible. • 6. Read the plate in a spectrophotometer (SpectraMax) at 30° C., wherein each well is measured every 60 s for 30 min. For Factor Xa assays, each well is measured every 1 min for a total of 60 min. • 7. For Factor XIa assays, the compounds are assayed, in duplicate, at 3 different starting concentrations, 20, 2, and 0.2 μM; 1:10, 1:100, and 1:1000 dil'n of 10 mM stock. All data sets are combined for graphing and data fitting. • 8. Data can be used both for estimation of IC50 and for estimation of Kon.
Potential inhibitors of Factor XIa were evaluated using the following assay.
S-2366, pyroGlu-Pro-Arg-7-methylaminocourin (AMC), available from CPC Scientific, Inc., is based on the substrate pyro-Glu-Pro-Arg-pNA, available from Diapharma Group, Inc. (Columbus, Ohio), where the p-nitroanaline group is replaced with 7-methylaminocoumarin (AMC).
The final concentration of the substrate in the assay was 50 μM, and the final concentration of the enzyme was 0.25 nM. Inhibitors were tested by serial dilution over an appropriate range to yield a dose response curve for determination of the inhibitors' IC50 value. The assay mixture was read every minute for 30 minutes in order to generate progress curves. The plates were read in a Spectramax m5 Multimode Plate Reader (Molecular Devices LLC, Sunnyvale, Calif.). Dose response curves were fit to Equation 1 below in which A is the maximum inhibition, B is the minimum inhibition, C is the IC50, and D is the Hill coefficient. [(A−B)/(1+(X/C)^D)]+B (Equation 1)
For `C[C@@H](NC(=O)N1C(=O)[C@H](Cc2ccnc(N)c2)[C@H]1C(N)=O)c1ccccc1` [Example 13, (2S,3R)-3-[(2-aminopyridin-4-yl)methyl]-4-oxo-N-1-[(1R)-1-phenylethyl]azetidine-1,2-dicarboxamide trifluoroacetate], the IC50 is greater than 1000 nM.
For the compound `O=C(O)[C@@H]1[C@@H](Cc2ccnc(Cl)c2)C(=O)N1C(=O)NC(c1ccccc1)c1ccccc1` [Example 51], the IC50 was greater than 1000 nM.
As for `CCCCCCOC(=O)Nc1cc(C[C@H]2C(=O)N(C(=O)NC(c3ccccc3)c3ccccc3)[C@@H]2C(=O)O)ccn1` [Example 56], the half-maximal inhibitory concentration (IC50) was greater than 1000 nM.
With `CCCCCCOC(=O)Nc1cc(C[C@H]2C(=O)N(C(=O)NC(c3ccccc3)c3ccccc3)[C@@H]2C(=O)OCC)ccn1` [Example 57], the IC50 is greater than 1000 nM.
Regarding `CCOC(=O)[C@@H]1[C@@H](Cc2cccnc2)C(=O)N1C(=O)N[C@H](C)c1ccc2c(c1)OC(F)(F)O2` [Example 95], the 50% inhibitory concentration (IC50) is greater than 1000 nM.
Same read-out and setting: the result for `C[C@@H](NC(=O)N1C(=O)[C@H](Cc2ccc(Cl)nc2)[C@H]1C(=O)O)c1ccc2c(c1)OC(F)(F)O2` [Example 96] reads greater than 1000 nM; that for `CCOC(=O)[C@@H]1[C@@H](Cc2ccc(Cl)nc2)C(=O)N1C(=O)N[C@H](C)c1ccc2c(c1)OC(F)(F)O2` [Example 97], greater than 1000 nM.
Turning to `C[C@@H](NC(=O)N1C(=O)[C@H](Cc2cncs2)[C@H]1C(=O)O)c1ccc2c(c1)OC(F)(F)O2` [Example 102], the IC50 is greater than 1000 nM.
On the same count and under the same terms, for `C[C@@H](NC(=O)N1C(=O)[C@H](Cc2cc(Cl)ccn2)[C@H]1C(=O)O)c1ccc2c(c1)OC(F)(F)O2` [Example 107] the value was greater than 1000 nM.
For `C[C@@H](NC(=O)N1C(=O)[C@H](Cc2cncc(Cl)c2)[C@H]1C(=O)O)c1ccc2c(c1)OC(F)(F)O2` [Example 108], the IC50 was greater than 1000 nM.
The same measure, in the same setting: for `C[C@@H](NC(=O)N1C(=O)[C@H](Cc2ccccn2)[C@H]1C(=O)O)c1ccc2c(c1)OC(F)(F)O2` [Example 114] the value was greater than 1000 nM.
Still for that read-out and setting: for `O=C(O)[C@@H]1[C@@H](Cc2cccc(Br)c2)C(=O)N1C(=O)N[C@@H](C1CCCCC1)C(F)(F)F` [Example 131] the value was greater than 1000 nM; for `O=C(O)[C@@H]1[C@@H](Cc2cncc(Cl)c2)C(=O)N1C(=O)N[C@@H](C1CCCCC1)C(F)(F)F` [Example 133], greater than 1000 nM.
Regarding `O=C(O)[C@@H]1[C@@H](Cc2cccc3c2OCO3)C(=O)N1C(=O)N[C@@H](C1CCCCC1)C(F)(F)F` [Example 136], the half-maximal inhibitory concentration (IC50) is 100 to 1000 nM.
In the case of `O=C(O)[C@@H]1[C@@H](Cc2cccc3[nH]ncc23)C(=O)N1C(=O)N[C@@H](C1CCCCC1)C(F)(F)F` [Example 138], the IC50 is greater than 1000 nM.
With `O=C(O)[C@@H]1[C@@H](Cc2ccccc2)C(=O)N1C(=O)N[C@@H](C1CCCCC1)C(F)(F)F` [Example 139], the IC50 is greater than 1000 nM.
Take `C[C@H](c1ccccc1)N(C)C(=O)N1C(=O)[C@H](CCc2cccc(Cl)c2)[C@H]1C(=O)O` [Example 144]: the IC50 is greater than 1000 nM.
Regarding `O=C(O)[C@@H]1[C@@H](CCc2ccccc2)C(=O)N1C(=O)N[C@@H](C1CCCCC1)C(F)(F)F` [Example 145], the IC50 was greater than 1000 nM.
The same measure, in the same setting: the result for `O=C(O)[C@@H]1[C@@H](Cc2ccnc(O)c2)C(=O)N1C(=O)N[C@@H](C1CCCCC1)C(F)(F)F` [Example 147] reads greater than 1000 nM; that for `C[C@H](C1CCCCC1)N(C)C(=O)N1C(=O)[C@H](Cc2ccnc(N)c2)[C@H]1C(=O)O` [Example 149], 10 to 100 nM.
On the same count and under the same terms, for `CCOC(=O)[C@@H]1[C@@H](Cc2ccnc(NC(=O)OC(C)OC(=O)C(C)C)c2)C(=O)N1C(=O)N[C@H](C)C1CCCCC1` (stereo partly drawn) [Example 150] the value was 10 to 100 nM; for `CCOC(=O)[C@@H]1[C@@H](Cc2ccnc(N)c2)C(=O)N1C(=O)N(C)[C@H](C)C1CCCCC1` [Example 151], 10 to 100 nM; for `O=C(O)[C@@H]1[C@@H](CCCc2ccccc2)C(=O)N1C(=O)N[C@@H](C1CCCCC1)C(F)(F)F` [Example 152], greater than 1000 nM.
Same read-out and setting: for `O=C(O)[C@@H]1[C@@H](CCc2ccc(Cl)cc2)C(=O)N1C(=O)N[C@@H](C1CCCCC1)C(F)(F)F` [Example 153] the value was greater than 1000 nM; for `COc1cccc(CC[C@H]2C(=O)N(C(=O)N[C@@H](C3CCCCC3)C(F)(F)F)[C@@H]2C(=O)O)c1` [Example 154], greater than 1000 nM.
Consider `Cc1cccc(CC[C@H]2C(=O)N(C(=O)N[C@@H](C3CCCCC3)C(F)(F)F)[C@@H]2C(=O)O)c1` [Example 155], for which the IC50 fell in the range of 100 to 1000 nM.
On the same count and under the same terms, the result for `O=C(O)[C@@H]1[C@@H](CCc2cccc(Cl)c2)C(=O)N1C(=O)NC(c1ccccc1)c1ccccc1` [Example 157] reads greater than 1000 nM; that for `C[C@@H](NC(=O)N1C(=O)[C@H](CCc2cccc(Cl)c2)[C@H]1C(=O)O)c1ccc2c(c1)OC(F)(F)O2` [Example 159], 100 to 1000 nM; that for `C[C@@H](NC(=O)N1C(=O)[C@H](Cc2ccnc(Cl)c2)[C@H]1C(=O)O)c1ccccc1` [Example 190], greater than 1000 nM.
The same measure, in the same setting: for `C[C@@H](NC(=O)N1C(=O)[C@H](Cc2cccnc2)[C@H]1C(=O)O)c1ccc2c(c1)OC(F)(F)O2` [Example 191] the value was greater than 1000 nM; for `CCCC(CCC)NC(=O)N1C(=O)[C@H](CCc2cccc(Cl)c2)[C@H]1C(=O)O` [Example 192], greater than 1000 nM; for `O=C(O)[C@@H]1[C@@H](Cc2cccc(Cl)c2)C(=O)N1C(=O)N[C@@H](C1CCCCC1)C(F)(F)F` [Example 193], greater than 1000 nM.
Still for that read-out and setting: the result for `O=C(O)[C@@H]1[C@@H](CCc2ccccc2Cl)C(=O)N1C(=O)N[C@@H](C1CCCCC1)C(F)(F)F` [Example 194] reads greater than 1000 nM.
As to `O=C(O)[C@@H]1[C@@H](Cc2ccc(Cl)cc2)C(=O)N1C(=O)N[C@@H](C1CCCCC1)C(F)(F)F` [Example 195], the IC50 was greater than 1000 nM.
`O=C(O)[C@@H]1[C@@H](Cc2ccccc2Cl)C(=O)N1C(=O)N[C@@H](C1CCCCC1)C(F)(F)F` [Example 196]: the IC50 was greater than 1000 nM.
On the same count and under the same terms, the result for `O=C(O)[C@@H]1[C@@H](CCc2cc(Cl)ccc2F)C(=O)N1C(=O)N[C@@H](C1CCCCC1)C(F)(F)F` [Example 197] reads 100 to 1000 nM.
Turning to `O=C(O)[C@@H]1[C@@H](CCc2cc(Cl)ccc2Cl)C(=O)N1C(=O)N[C@@H](C1CCCCC1)C(F)(F)F` [Example 198], the IC50 was in the range of 100 to 1000 nM.
Take `O=C(O)[C@@H]1[C@@H](CCc2cccc(Cl)c2)C(=O)N1C(=O)N[C@@H](C1CCCCCCC1)C(F)(F)F` [Example 199]: the IC50 is 100 to 1000 nM.
Same read-out and setting: for `O=C(O)[C@@H]1[C@@H](CCc2ccc(Br)s2)C(=O)N1C(=O)N[C@@H](C1CCCCC1)C(F)(F)F` [Example 200] the value was greater than 1000 nM.
